Results taken from US8454982B2, “Stable S-(+)-abscisic acid liquid and soluble granule formulations” (Valent BioSciences Corporation, priority 2007, dated 2013).

Tests used:
[1] = system: Flame Seedless grapes; test: Field table grape coloration; assay type: in vivo; conditions: for Number of colored clusters per 4 vines: foliar, 200 gallons/acre
Experimental: ABA formulation performance was evaluated in the field using table grape coloration to assess efficacy. Treatments consisted of untreated control, ethephon control (industry standard ethylene-releasing agent), ABA technical (95% ABA solubilized in ethanol), ABA liquid formulation, and ABA water-soluble granule formulation. All treatments had 0.05% v/v Latron B-1956 surfactant included. The three ABA treatments (200 ppm ABA; 200 gallons/acre) and the ethephon control (250 ppm at 200 gallons/acre) were foliar applied with a backpack sprayer at 10 to 20% color development (June 27) on Flame Seedless grapes commercially grown in Arvin, Calif. The numbers of color clusters per 4 vines were assessed at 8 and 11 days after treatment.

[2] = system: Coleus plants; test: Greenhouse Coleus wilting (drought tolerance, shelf life); assay type: in vivo
Experimental: ABA formulation performance was evaluated in the greenhouse using Coleus wilting to assess efficacy. Treatments consisted of control, ABA technical (95% ABA solubilized in ethanol), ABA liquid formulation, and ABA water-soluble granule formulation. Coleus plants were grown in four-inch diameter pots to the 6 to 8 leaf stage (n=4 plants/treatment). Water (15 mL/plant) was drench-applied to the control plants, and ABA (15 mL/plant; 250 ppm ABA) was drench applied to ABA treated plants. The plants were held in a greenhouse without irrigation until all plants wilted to a point when they were determined to be unmarketable. The plants were rated daily for the extent of wilting on a scale from 1 (no wilting) to 4 (complete wilting). A rating of 2.5 was the point at which a plant was determined to be unmarketable and the previous day was recorded as the marketable life of that plant in days.

Structure (SMILES)	Number of colored clusters per 4 vines ([1]; 8 days after treatment)	Number of colored clusters per 4 vines ([1]; 11 days after treatment)	Number of colored clusters, comparison ([1]; in vivo)	Days of shelf life after treatment ([2]; drench 15 mL/plant, 250 ppm ABA, no irrigation) [days]	Coleus wilting / shelf life, comparison ([2]; in vivo)
CC1=CC(=O)CC(C)(C)[C@@]1(O)/C=C/C(C)=C\C(=O)O [ABA technical, S-(+)-abscisic acid]	9.0	11.2	increased the number of colored clusters more than the ethephon control	12	delayed wilting and increased shelf life of Coleus plants
O=P(O)(O)CCCl [Ethephon control, ethephon, reference compound]	6.0	6.7	–	–	–
